Reference: patent publication US20250101062A1, “ANTIMICROBIAL PEPTIDES” (Board of Regents of the University of Nebraska, priority 2023, published 2025)
Like-named read-outs stand apart in the source and are kept apart here. Where no end group is shown, it is not given here.

Columns and labels:
P. aeruginosa E411-17 = experiment: microbe, parasite or virus in culture; type: cell-based, Pseudomonas aeruginosa; details: for MIC: read-out: Antimicrobial activity (MIC)
Method in brief: (§1)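 Broth microdilution with twofold peptide dilutions, using exponential-phase bacteria at about 10^5 CFU/mL in MHB, incubated overnight at 37 °C and read at OD600. MIC, reported as a range, is the peptide concentration with no growth. Some tests used diluted MHB/TSB/LB, adjusted pH, or added NaCl or human serum.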

A. baumannii B28-16 = type: cell-based, Acinetobacter baumannii; details: B28-16
Method in brief: (§2)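 Peptides twofold serially diluted against exponential-phase resistant clinical isolates at ~10^5 CFU/mL in MHB (also diluted MHB, TSB or LB in one protocol), CLSI-based broth microdilution. Incubated overnight at 37° C., OD 600 nm read; MIC taken as lowest concentration without growth, reported as ranges.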

S. epidermidis 1457 = experiment: microbe, parasite or virus in culture; type: cell-based, Staphylococcus epidermidis; details: read-out: Antimicrobial activity (MIC) S. epidermidis 1457
Method in brief: as §2

E. coli E423-17 = type: cell-based, Escherichia coli; details: E423-17
[1] = Cell viability assay (MTS); type: cell-based, human; details: human; 24 h; read-out: 50% lethal concentration (LC50)
Protocol: Human keratinocyte HaCaT cells were grown in DMEM/high glucose (Hyclone, UT) containing 10% fetal bovine serum (Mediatech, Corning, Manassas, VA). […] The mixture was incubated at 37° C. in 5% CO2 for 24 hours.
(§3) HepG2 cells were cultured in ATCC-formulated Eagle's Minimum Essential Medium with 10% FBS. A549 cells were grown in ATCC-formulated F-12K Medium containing 10% FBS.

human red blood cells = experiment: Hemolytic assay; type: cell-based; details: red cells of human
Protocol: The hemolytic effects of peptides were evaluated using a method with minor modifications (Lakshmaiah Narayana, et al. (2021) ACS Infect. Dis., 7:1795-1808). Human red blood cells (hRBCs, UNMC Blood Bank) were washed (3×) with blood bank saline (isotonic solution 0.90% w/v, Fisher). Cells were diluted to 2% using the saline solution, and aliquots of 90 μL were added to a 96-well polystyrene microplate containing 10 μL of serially diluted peptide solutions. After incubation at 37° C. for 1 hour, plates were centrifuged at 500 g for 5 minutes. Aliquots of the supernatant were transferred to a 96-well microplate. The amount of hemoglobin released was measured at 545 nm by using a ChroMate™ microplate reader. […] HC50 is defined as the concentration of the peptide that caused 50% lysis.
The hemolytic effects of peptides were evaluated (Narayana, et al. (2020) Proc. Natl. Acad. Sci., 117(32):19446-9454). In brief, human red blood cells (UNMC Blood Bank) were washed (3×) and diluted to 2% using the saline solution. Aliquots of 90 μL were mixed with 10 μL of serially diluted peptide solutions. After incubation at 37° C. for 1 hour, plates were centrifuged at 500 g for 5 minutes and aliquots of the supernatant were transferred to a new 96-well microplate to measure the amount of hemoglobin released at 545 nm (relative to 1% Triton® X-100) using a ChroMate® Microplate Reader.

Cytotoxicity assay (MTS) = type: cell-based; details: human, HepG2 cells, read-out: LC50
Protocol: as §3

P. aeruginosa E416-17 = type: cell-based, Pseudomonas aeruginosa
Protocol: Peptide activity against bacteria were tested using the CLSI standard procedure with minor modifications (Clinical and Laboratory Standards Institute (2018) Performance standards for antimicrobial susceptibility testing, 9th ed.; Mishra, et al. (2019) Proc. Natl. Acad. Sci., 116(27):13517-13522). In brief, a peptide concentration gradient with twofold dilution was made in the 96-well polystyrene microplate at 10 μL per well. Bacteria were grown to the exponential phase (i.e., optical density at 600 nm≈0.5), diluted to ˜10^5 CFU/mL in MHB, and partitioned into the 96-well microplate at 90 μL per well. The microplates were incubated at 37° C. overnight and read on a ChroMate® 4300 Microplate Reader at 600 nm (GMI, Ramsey, MN). The peptide concentration in the wells without bacterial growth is the minimal inhibitory concentration (MIC). As the convention, MIC values were represented as ranges.

S. aureus USA300 LAC = experiment: microbe, parasite or virus in culture; type: cell-based, Staphylococcus aureus
Method in brief: as §1

K. pneumoniae E406-17 = type: cell-based, Klebsiella pneumoniae
Method in brief: as §2

With RWKRFLRNWV-NH2 [RIK-10+] the “Antimicrobial activity (MIC) P. aeruginosa E411-17” value (P. aeruginosa E411-17; E411-17) was 4 µM, the MIC (P. aeruginosa E411-17; E411-17, pH 6.21) was 8 µM and the “Antimicrobial activity (MIC)” value (P. aeruginosa E411-17; E411-17, pH 7.22) was 4 to 8 µM. The MIC (P. aeruginosa E411-17; E411-17, pH 8.13) was 4 µM, the MIC (P. aeruginosa E411-17; E411-17) was greater than 32 µM and the “Antimicrobial activity (MIC) A. baumannii B28-16” value (A. baumannii B28-16) was 8 µM. The MIC (S. epidermidis 1457) was greater than 32 µM, the “Antimicrobial activity (MIC) E. coli E423-17” value (E. coli E423-17) was 4 µM and the “MIC E. coli E423-17” value (E. coli E423-17) was 4 to 8 µM. The CC50 at 24 h [1] was 100 µM, the “Hemolysis (HC10), 10% hemolytic concentration” value (human red blood cells) was 220 µM and the CC50 at 24 h (Cytotoxicity assay (MTS)) was 100 µM. For the same substance, the “MIC P. aeruginosa E416-17” value (P. aeruginosa E416-17) was 4 µM, the “MIC S. aureus USA300” value (S. aureus USA300 LAC; USA300) was 16 to 32 µM and the MIC (S. aureus USA300 LAC; USA300, pH 6.21, read-out: Antimicrobial activity (MIC)) was greater than 32 µM. For the same substance, the MIC (S. aureus USA300 LAC; USA300, pH 7.22, read-out: Antimicrobial activity (MIC)) was 16 µM, the MIC (S. aureus USA300 LAC; USA300, pH 8.13, read-out: Antimicrobial activity (MIC)) was 8 µM and the MIC (S. aureus USA300 LAC; USA300, read-out: Antimicrobial activity (MIC)) was greater than 32 µM. For the same substance, the MIC (S. aureus USA300 LAC; USA300, read-out: Antimicrobial activity (MIC) S. aureus USA300) was 16 µM and the “MIC K. pneumoniae E406-17” value (K. pneumoniae E406-17) was 32 µM.
